Assay results taken from PubChem BioAssay (NCI).
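Exposure lasted 48 hours, with cells grown in 96-well plates and compounds tested at five concentrations. Definition used: TGI = concentration required for complete inhibition of growth.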

How the values were obtained:
Assay in all cases: DTP human tumour cell line panel, 48 h
BT-549 breast = system: BT-549 breast
CAKI-1 renal = system: CAKI-1 renal
DU-145 prostate = system: DU-145 prostate
EKVX NSCLC = system: EKVX NSCLC
HCT-15 colon = system: HCT-15 colon
HT29 colon = system: HT29 colon
IGROV1 ovarian = system: IGROV1 ovarian
M19-MEL melanoma = system: M19-MEL melanoma
MDA-MB-231 breast = system: MDA-MB-231 breast
NCI-H226 lung = system: NCI-H226 lung
NCI-H23 lung = system: NCI-H23 lung
OVCAR-3 ovarian = system: OVCAR-3 ovarian
OVCAR-5 ovarian = system: OVCAR-5 ovarian
RPMI-8226 leukemia = system: RPMI-8226 leukemia
RXF 393 renal = system: RXF 393 renal
SNB-19 CNS = system: SNB-19 CNS
SNB-75 CNS = system: SNB-75 CNS
U251 CNS = system: U251 CNS
UACC-62 melanoma = system: UACC-62 melanoma
COLO 205 colon = system: COLO 205 colon

Row | Compound | TGI (BT-549 breast) [µM] | TGI (CAKI-1 renal) [µM] | TGI (DU-145 prostate) [µM] | TGI (EKVX NSCLC) [µM] | TGI (HCT-15 colon) [µM] | TGI (HT29 colon) [µM] | TGI (IGROV1 ovarian) [µM] | TGI (M19-MEL melanoma) [µM] | TGI (MDA-MB-231 breast) [µM] | TGI (NCI-H226 lung) [µM] | TGI (NCI-H23 lung) [µM] | TGI (OVCAR-3 ovarian) [µM] | TGI (OVCAR-5 ovarian) [µM] | TGI (RPMI-8226 leukemia) [µM] | TGI (RXF 393 renal) [µM] | TGI (SNB-19 CNS) [µM] | TGI (SNB-75 CNS) [µM] | TGI (U251 CNS) [µM] | TGI (UACC-62 melanoma) [µM] | TGI (COLO 205 colon) [µM]
1 | NC(=O)N=C(N(Cc1ccccc1)Cc1ccccc1)N(Cc1ccccc1)Cc1ccccc1 | > 100 | > 100 | > 100 | > 100 | > 100 | > 100 | > 100 | > 100 | > 100 | > 100 | > 100 | > 100 | > 100 | > 100 | > 100 | > 100 | 81.8 | > 63.7 | > 100 | –
2 | Nn1c(NNC(=O)C(=O)Nc2cc(Cl)c(Cl)cc2Cl)n[nH]c1=S | – | > 100 | – | > 100 | > 100 | > 100 | > 100 | > 100 | – | > 100 | > 100 | > 100 | > 100 | – | > 100 | > 100 | > 100 | > 100 | > 100 | > 100
3 | O=C(CSc1nnc(-c2ccc(N=Cc3ccc(Cl)cc3)cc2)o1)Nc1ccc(Cl)cc1Cl | – | > 100 | – | > 100 | 52.8 | 60.5 | 58.7 | 88.5 | – | 58.2 | 59.3 | – | > 100 | > 100 | > 100 | 85 | 72.7 | 69.9 | 60.3 | 78
4 | Cn1cnc(CCc2ccccc2)n1 | – | > 100 | – | – | > 100 | > 100 | > 100 | > 100 | – | > 100 | > 100 | > 100 | > 100 | > 100 | > 100 | – | > 100 | > 100 | > 100 | > 100
5 | CC(C)[C@H]1CO[C@]2(C)[C@@H]3CN(Cc4ccccc4)C[C@@H]3C(=O)N12 | – | > 100 | – | > 100 | > 100 | > 100 | > 100 | > 100 | – | > 100 | > 100 | > 100 | – | > 100 | > 100 | > 100 | > 100 | > 100 | > 100 | > 100
6 | Cc1csc(=S)n1OC(=O)NC1CCCCC1 | – | > 100 | – | > 100 | > 100 | > 95.5 | > 100 | > 56.6 | – | > 100 | > 47.3 | > 100 | – | > 71.8 | > 100 | > 100 | > 100 | > 100 | > 67.2 | > 40.2
7 | COc1cc(OC)c2c(c1)C(=O)C(CC(C)O)=CC2=O (stereo unspecified) | – | 34.3 | – | 26.2 | 27.7 | 36.8 | 34.2 | 11.4 | – | 35.4 | 34.9 | 18.3 | 32.3 | 46.4 | 25.3 | 31.6 | 41 | 31.8 | 25.8 | 32.6
8 | COc1cc(Cn2c3ccccc3c3cc(C)c4c(c32)C=CC(C)(CCC=C(C)C)O4)cc2c1[nH]c1ccccc12 (stereo unspecified) | – | > 100 | – | > 100 | > 100 | > 100 | > 100 | > 100 | – | – | > 100 | > 100 | > 100 | > 100 | > 100 | > 100 | > 100 | > 100 | > 100 | > 100
